Test results as given in BindingDB's records for doi:10.1016/j.ejmech.2020.113116 (University of Pisa, 2021).

Columns and labels:
[1] = Positive allosteric modulator activity at human CB2R expressed in CHO-K1 cell membrane assessed as CP55940 EC50 for [35S]GTPgammaS binding at 1 nM measured after 90 mins by liquid scintillation counting analysis (Rvb = 1.9 nM)
[2] = Positive allosteric modulator activity at human CB2R expressed in CHO-K1 cell membrane assessed as CP55940 EC50 for [35S]GTPgammaS binding at 100 nM measured after 90 mins by liquid scintillation counting analysis (Rvb = 1.9 nM)

Which EC50 [1] does the source give for Cc1c(Br)cn(Cc2ccccc2Cl)c(=O)c1NC(=O)C1CCCCCC1 here?
The EC50 was 2.6 nM.

What about the EC50 [2] of the same compound?
The EC50 was 2.4 nM.

For Cc1c(Br)cn(Cc2ccccc2F)c(=O)c1NC(=O)C1CCCCCC1, which EC50 [1] is on record?
The EC50 was 3.4 nM.

And the EC50 [2]?
Its EC50 is 7 nM.
